Results reported in patent US8993554B2, “Tetrahydroquinoline derivatives useful as bromodomain inhibitors” (GlaxoSmithKline LLC, priority 2011, dated 2015).
Counter-ions that a name gives are not always drawn.

system: LPS induced IL-6 secretion from whole blood; assay: Measurement of LPS Induced IL-6 Secretion from Whole Blood; assay type: cell-based; conditions: IL-6 by immunoassay, LPS 200 ng/ml, 24 hours
Protocol: Activation of monocytic cells by agonists of toll-like receptors such as bacterial lipopolysaccharide (LPS) results in production of key inflammatory mediators including IL-6. Such pathways are widely considered to be central to the pathophysiology of a range of auto-immune and inflammatory disorders.
Compounds to be tested are diluted to give a range of appropriate concentrations of which 1 μl of the diluted stocks is added to a 96 well plate. Following addition of whole blood (130 μl) the plates are incubated at 37 degrees (5% CO2) for 30 min before the addition of 10 μl of 2.8 ug/ml LPS, diluted in complete RPMI 1640 (final concentration=200 ng/ml), to give a total volume of 140 μl per well. After further incubation for 24 hours at 37 degrees, 140 μl of PBS are added to each well. The plates are sealed, shaken for 10 minutes and then centrifuged (2500 rpm×10 min). 100 μl of the supernatant are removed and IL-6 levels assayed by immunoassay (typically by MesoScale Discovery technology) either immediately or following storage at −20 degrees. Concentration response curves for each compound was generated from the data and an IC50 value was calculated.

IC50, 50.1 to 3160 nM:
CC(=O)N1c2ccc(-c3ccc(C(=O)NCCO)cc3)cc2[C@H](Nc2ccc(Cl)cc2)C[C@@H]1C [Example 40, 4-((2S,4R)-1-acetyl-4-((4-chlorophenyl)amino)-2-methyl-1,2,3,4-tetrahydroquinolin-6-yl)-N-(2-hydroxyethyl)benzamide]
CC(=O)N1c2ccc(-c3ccc(C(=O)NC[C@H](C)O)cc3)cc2[C@H](Nc2ccc(Cl)cc2)C[C@@H]1C [Example 42, 4-((2S,4R)-1-acetyl-4-((4-chlorophenyl)amino)-2-methyl-1,2,3,4-tetrahydroquinolin-6-yl)-N—((S)-2-hydroxypropyl)benzamide]
CC(=O)N1c2ccc(-c3ccc(C(=O)NCCN)cc3)cc2[C@H](Nc2ccc(Cl)cc2)C[C@@H]1C [Example 44, 4-((2S,4R)-1-acetyl-4-((4-chlorophenyl)amino)-2-methyl-1,2,3,4-tetrahydroquinolin-6-yl)-N-(2-aminoethyl)benzamide]
CC(=O)N1c2ccc(-c3ccc(C(=O)NCCN(C)C)cc3)cc2[C@H](Nc2ccccc2)C[C@@H]1C [Example 45, 4-((2S,4R)-1-acetyl-2-methyl-4-(phenylamino)-1,2,3,4-tetrahydroquinolin-6-yl)-N-(2-(dimethylamino)ethyl)benzamide]
CC(=O)N1c2ccc(-c3ccc(C(=O)NCCO)cc3)cc2[C@H](Nc2ccccc2)C[C@@H]1C [Example 46, 4-((2S,4R)-1-acetyl-2-methyl-4-(phenylamino)-1,2,3,4-tetrahydroquinolin-6-yl)-N-(2-hydroxyethyl)benzamide]
CC(=O)N1c2ccc(-c3ccc(C(=O)N4CCNCC4)nc3)cc2[C@H](Nc2ccc(C#N)cn2)C[C@@H]1C [Example 48, 6-(((2S,4R)-1-acetyl-2-methyl-6-(6-(piperazine-1-carbonyl)pyridin-3-yl)-1,2,3,4-tetrahydroquinolin-4-yl)amino)nicotinonitrile]
CC(=O)N1c2ccc(-c3ccc(C(=O)NCCO)nc3)cc2[C@H](Nc2cnc(C#N)cn2)C[C@@H]1C [Example 49, 5-((2S,4R)-1-acetyl-4-((5-cyanopyrazin-2-yl)amino)-2-methyl-1,2,3,4-tetrahydroquinolin-6-yl)-N-(2-hydroxyethyl)picolinamide]
CC(=O)N1c2ccc(-c3ccc(C(=O)N4CCOCC4)nc3)cc2[C@H](Nc2ccc(C)cn2)C[C@@H]1C [Example 51, 1-((2S,4R)-2-methyl-4-((5-methylpyridin-2-yl)amino)-6-(6-(morpholine-4-carbonyl)pyridin-3-yl)-3,4-dihydroquinolin-1(2H)-yl)ethanone]
CC(=O)N1c2ccc(-c3ccc(C(=O)N4CCOCC4)nc3)cc2[C@H](Nc2ccc(Cl)cn2)C[C@@H]1C [Example 52, 1-((2S,4R)-4-((5-chloropyridin-2-yl)amino)-2-methyl-6-(6-(morpholine-4-carbonyl)pyridin-3-yl)-3,4-dihydroquinolin-1(2H)-yl)ethanone]
CC(=O)N1c2ccc(-c3ccc(C(=O)N4CCOCC4)nc3)cc2[C@H](Nc2cnc(C)cn2)C[C@@H]1C [Example 54, 1-((2S,4R)-2-methyl-4-((5-methylpyrazin-2-yl)amino)-6-(6-(morpholine-4-carbonyl)pyridin-3-yl)-3,4-dihydroquinolin-1(2H)-yl)ethanone]
CC(=O)N1c2ccc(-c3ccc(C(=O)N4CCOCC4)cc3)cc2[C@H](Nc2ccc(C)cn2)C[C@@H]1C [Example 56, 1-((2S,4R)-2-methyl-4-((5-methylpyridin-2-yl)amino)-6-(4-(morpholine-4-carbonyl)phenyl)-3,4-dihydroquinolin-1(2H)-yl)ethanone formate]
CC(=O)N1c2ccc(-c3ccc(C(=O)N4CCOCC4)cn3)cc2[C@H](Nc2ccc(Cl)cn2)C[C@@H]1C [Example 57, 1-((2S,4R)-4-((5-chloropyridin-2-yl)amino)-2-methyl-6-(5-(morpholine-4-carbonyl)pyridin-2-yl)-3,4-dihydroquinolin-1(2H)-yl)ethanone]
CC(=O)N1c2ccc(-c3ccc(C(=O)N4CCOCC4)cn3)cc2[C@H](Nc2cnccn2)C[C@@H]1C [Example 58, 1-((2S,4R)-2-methyl-6-(5-(morpholine-4-carbonyl)pyridin-2-yl)-4-(pyrazin-2-ylamino)-3,4-dihydroquinolin-1(2H)-yl)ethanone]
CC(=O)N1c2ccc(-c3ccc(C(=O)N4CCOCC4)cn3)cc2[C@H](Nc2ccc(C)cn2)C[C@@H]1C [Example 59, 1-((2S,4R)-2-methyl-4-((5-methylpyridin-2-yl)amino)-6-(5-(morpholine-4-carbonyl)pyridin-2-yl)-3,4-dihydroquinolin-1(2H)-yl)ethanone]
CC(=O)N1c2ccc(-c3ccc(C(=O)N4CCOCC4)cn3)cc2[C@H](Nc2cnc(C)cn2)C[C@@H]1C [Example 60, 1-((2S,4R)-2-methyl-4-((5-methylpyrazin-2-yl)amino)-6-(5-(morpholine-4-carbonyl)pyridin-2-yl)-3,4-dihydroquinolin-1(2H)-yl)ethanone]
CC(=O)N1c2ccc(-c3ccc(C(=O)N4CCOCC4)cn3)cc2[C@H](Nc2ccccn2)C[C@@H]1C [Example 61, 1-((2S,4R)-2-methyl-6-(5-(morpholine-4-carbonyl)pyridin-2-yl)-4-(pyridin-2-ylamino)-3,4-dihydroquinolin-1(2H)-yl)ethanone]
CC(=O)N1c2ccc(-c3ccc(C(=O)N4CCOCC4)nc3)cc2[C@H](Nc2cccc(Cl)c2)C[C@@H]1C [Example 62]
CC(=O)N1c2ccc(-c3ccc(C(=O)N4CCOCC4)cn3)cc2[C@H](Nc2cccc(Cl)c2)C[C@@H]1C [Example 63]
CC(=O)N1c2ccc(-c3ccc(C(=O)N4CCOCC4)cn3)cc2[C@H](Nc2ccc(Cl)cc2)C[C@@H]1C [Example 64, 1-((2S,4R)-4-((4-chlorophenyl)amino)-2-methyl-6-(5-(morpholine-4-carbonyl)pyridin-2-yl)-3,4-dihydroquinolin-1(2H)-yl)ethanone]
CC(=O)N1c2ccc(-c3ccc(C(=O)N4CCOCC4)cc3)cc2[C@H](Nc2ccc(C#N)cn2)C[C@@H]1C [Example 65, 6-(((2S,4R)-1-acetyl-2-methyl-6-(4-(morpholine-4-carbonyl)phenyl)-1,2,3,4-tetrahydroquinolin-4-yl)amino)nicotinonitrile]
CC(=O)N1c2ccc(-c3ccc(C(=O)N4CCCC4)cc3)cc2[C@H](Nc2ccc(C)cn2)C[C@@H]1C [Example 68, 1-((2S,4R)-2-methyl-4-((5-methylpyridin-2-yl)amino)-6-(4-(pyrrolidine-1-carbonyl)phenyl)-3,4-dihydroquinolin-1(2H)-yl)ethanone formate]
